For assay [1], the system named is activated HUVEC monolayers. Kind of assay: Transport of WBCs across activated HUVEC monolayers on a porous membrane (SDF1-α chemoattractant). It counts as cell-based, human. To be noted: for WBC transmigration across HUVEC monolayer: 30 min, 37° C., WBCs counted in bottom chamber; for WBC capacity to transmigrate across the porous filter in the absence of an endothelial monolayer: no HUVEC monolayer. As to the method:
A confluent EC monolayer from human umbilical vein ECs was grown on a porous membrane through which peripheral lymphocytes isolated from healthy individuals (wild-type WBCs) can transmigrate, driven by the presence of the chemoattractant SDF1-α in the chamber underneath the ECs. Under control conditions, 77.7±2.3% wild-type WBCs underwent transmigration by 30 min, which was abrogated when K562 cells lacking the ICAM-1- and VCAM-1-binding integrins LFA-1 and VLA-4, respectively, were used (FIG. 1A). Transport of either peripheral blood lymphocytes (control) or K562 cells lacking ICAM-1- and VCAM-1-binding integrins of white blood cells (WBCs) across activated HUVEC monolayers assessed at 37° C. by counting WBCs in the bottom chamber underneath HUVEC, 30 min after adding WBCs to the upper chamber above HUVECs (black bars). Transmigration was alternatively performed prior (control) or after blocking integrins LFA-1 or VLA-4 on peripheral blood lymphocytes using monoclonal antibodies. The horizontal dashed line in FIG. 1A represents WBC transmigration at 4° C.
Data are normalized to control values, and represent mean and standard errors of the mean (n≧3 experiments). *, P≦0.001 by Student's t test.
Further, transport of activated peripheral blood lymphocytes (WBCs) across activated HUVEC monolayers was assessed at 37° C. by counting WBCs in the bottom chamber underneath HUVEC 30 min after adding WBCs to the upper chamber above HUVECs (FIG. 2A black bars). Absence of HUVEC monolayer was a control (FIG. 2A white bars). Transmigration was performed in the absence (control) or presence of filipin, methyl-β-cyclodextrin (Cdx) or amiloride. In accord with previous works (Tilghman R W, et al. (2002) FEBS Lett 525:83-87; Barreiro O, et al. (2005) Blood 105:2852-2861; Millan et al., 2006), WBC transmigration was inhibited by methyl-β-cyclodextrin (Cdx; 48.1±4.8% of control; FIG. 2A), an agent that depletes cholesterol from cells. […] Instead, amiloride, which affects Na^+/H^+ exchangers (Kleyman T R, et al. (1988) J Membr Biol 105:1-21) and inhibits CAM-mediated endocytosis (Muro S, et al. (2003) J Cell Sci 11 6:1599-1609), reduced WBC transmigration even to a greater extent than Cdx (38.6±3.7% of control; FIG. 2A).

For assay [2], the system named is activated HUVECs. As to the kind of experiment: Binding of activated WBCs to activated HUVECs (fluorescence microscopy). It counts as cell-based, human. The conditions noted are these: 30 min, 37° C.
From the text: The horizontal dashed line represents binding of negative control K562 WBCs, which lack ICAM-I- and VCAM-1-binding integrins. Data are normalized to control values, and represent mean and standard errors of the mean (n≧3 experiments). *, P≦0.001 by Student's t test.
In assay [3] the test system is activated HUVECs. As to the kind of experiment: Paracellular vs transcellular transmigration of WBCs over HUVECs on coverslips (podosome scoring). To be noted: for WBC TEM (WBCs projecting podosomes into/under HUVECs): 30 min, 37° C.; for arrested WBCs located away from the EC borders / diapedesis of WBCs located away from the EC borders: EC center; for paracellular TEM (transmigrating WBCs at EC border) / transcellular TEM (transmigrating WBCs at EC center): normalized to control; for paracellular TEM (transmigrating WBCs at EC border): <3 μm from cell border; for transcellular TEM (transmigrating WBCs at EC center): ≧3 μm from cell border. It counts as cell-based, human. As to the method:
The role of lipid domains and CAM-mediated endocytosis in paracellular versus transcellular diapedesis of leukocytes was examined. To distinguish between paracellular and transcellular TEM, WBCs were labeled with green-fluorescent calcein and diapedesis was evaluated by fluorescence and scanning electron microscopy as WBCs projecting podosomes (versus round-shaped WBCs) into or under ECs growing over glass coverslips (FIG. 3; FIG. 4).
Data are normalized to control values (horizontal dashed lines) and represent mean and standard errors of the mean (n≧30 WBCs). *, P≦0.05; **, P≦0.01; ***, P≦0.001 by Student's t test.

The test system of assay [4] is activated HUVECs. Kind of assay: Recruitment of molecules at sites of endothelial ICAM-1 engagement by anti-ICAM beads. Format: cell-based, human. To be noted: 15 min.
A further assay deals with HUVECs. Kind of assay: Endocytosis of anti-ICAM beads by ECs in culture (HUVECs). It counts as cell-based, human. To be noted: values normalized to controls.
Another assay concerns ICAM-1. To be noted: cited from earlier work.

methyl-β-cyclodextrin [Cdx]: in assay [1], the “WBC transmigration across HUVEC monolayer” value was 48.1±4.8 % of control and the “WBC capacity to transmigrate across the porous filter in the absence of an endothelial monolayer” value is recorded as “Neither Cdx nor amiloride impaired”. Also, the “affected WBC binding to ECs” value in the assay on activated HUVECs [2] is recorded as “Neither”. In the assay with activated HUVECs [3], the “WBC TEM (WBCs projecting podosomes into/under HUVECs)” value was 80.5±6.8 % of control, the “arrested WBCs located away from the EC borders” value is on record as 170.5±36.2 % of control, the “diapedesis of WBCs located away from the EC borders” value is given as 71.5±14.6 % of control and the “paracellular TEM (transmigrating WBCs at EC border)” value is reported as 124.9±17.1%. Further, in the assay with activated HUVECs [3], the “transcellular TEM (transmigrating WBCs at EC center)” value turned out to be 78.3±14.9%. Further, in the assay with activated HUVECs [4], the “ICAM-1 enrichment in areas of bead engulfment” value was 43 % decrease.
As for `CN(C)CCCN1c2ccccc2CCc2ccccc21` [imipramine], in the assay on activated HUVECs [3], the “WBC TEM (WBCs projecting podosomes into/under HUVECs)” value is given as 46.6±7.6 % of control. For the same compound, in the assay with activated HUVECs [3] (FIG. 14C), the “level of transcellular TEM” value is on record as “decreased the level of transcellular TEM” and the “paracellular TEM” value is “paracellular TEM increased”. Besides, in the assay on activated HUVECs [4], the “ceramide enrichment in areas of bead engulfment” value was 23.6 % decrease. Further, the “Internalization (%) of anti-ICAM beads” value in the assay with HUVECs is on record as 61.9 ± 6.7 %.
For the compound `N=C(N)NC(=O)c1nc(Cl)c(N)nc1N` [amiloride], in assay [1], the “WBC transmigration across HUVEC monolayer” value is recorded as 38.6±3.7 % of control and the “WBC capacity to transmigrate across the porous filter in the absence of an endothelial monolayer” value was “Neither Cdx nor amiloride impaired”. In addition, in the assay with activated HUVECs [2], the “affected WBC binding to ECs” value was “Neither”. For the same compound, in the assay with activated HUVECs [3], the “WBC TEM (WBCs projecting podosomes into/under HUVECs)” value is recorded as 63.8±7.3 % of control, the “arrested WBCs located away from the EC borders” value is 209.1±68.1 % of control, the “diapedesis of WBCs located away from the EC borders” value is listed as 56.0±27.5 % of control and the “paracellular TEM (transmigrating WBCs at EC border)” value was 139.6±34.1%. Moreover, the “transcellular TEM (transmigrating WBCs at EC center)” value with activated HUVECs [3] was found to be 65.5±29.7%. For the same compound, in the assay on activated HUVECs [4], the “ICAM-1 enrichment in areas of bead engulfment” value came out at 22.9 % decrease. In the assay with HUVECs, the “Internalization (%) of anti-ICAM beads” value came out at 13.8 ± 3.3 %.
Turning to `CCN(c1nc(N)c(C(=O)N=C(N)N)nc1Cl)C(C)C` [EIPA, 5′-(N-ethyl-N-isopropyl)amiloride], in the assay with activated HUVECs [4], the “ceramide enrichment in areas of bead engulfment” value is reported as 35.6 % decrease.
With `CCCCC[C@@H](O)[C@H]1C(=O)O[C@H](C)[C@@H](O)/C=C/C=C/C=C/C=C/C=C(\C)[C@@H](O)C[C@H](O)C[C@H](O)C[C@H](O)C[C@H](O)C[C@H](O)C[C@@H]1O` [filipin], in assay [1], the “WBC transmigration across HUVEC monolayer” value was 88.0±7.7 % of control. Moreover, the “WBC TEM (WBCs projecting podosomes into/under HUVECs)” value in the assay with activated HUVECs [3] is 108.7±8.6 % of control. In addition, the “Internalization (%) of anti-ICAM beads” value with HUVECs is reported as 107.2 ± 1.5%. In the assay with ICAM-1, the “Formation of endocytic vesicles upon ICAM-1 engagement by anti-ICAM particles” value is recorded as “not affected”.

These data come from patent US9901625B2, “Methods of regulating uptake and transcellular transport of leukocytes and therapeutics” (University of Maryland, College Park, priority 2011, dated 2018).
